This note sets out measurements from ChEMBL document CHEMBL1134585, “New 3'-azido-3'-deoxythymidin-5'-yl O-(4-hydroxyalkyl or -alkenyl or -alkylepoxide) carbonate prodrugs: synthesis and anti-HIV evaluation” (J Med Chem, 2001).

A short description of data set [1]: half life time required for 50% hydrolysis of prodrugs to AZT at 37 degrees upon incubation in normal human serum(NHS). It is filed as ADME.
Data set [2] can be described thus: half life time required for 50% hydrolysis of prodrugs to AZT at 37 degrees upon incubation in Phosphate buffer saline(PBS), (0% of AZT was released). It is filed as ADME.
In data set [3] the test system is MT4. As to the kind of experiment: Conc. required to inhibit the cytopathicity on HIV-1 by 50% on MT-4 cells. The following applies: Homo sapiens. The format is functional, cell-based.
The species entered for data set [4] is Homo sapiens. Nature of the data set: Conc. required to cause 50% death of uninfected PBMCs. The format is functional.
Data set [5] relates to MT4. Nature of the data set: Conc. required to cause 50% death of uninfected MT-4 cells. The format is functional. The following applies: Homo sapiens.
Data set [6] is described as follows: half life time required for 50% hydrolysis of prodrugs to AZT at 37 degrees upon incubation in Phosphate buffer saline(PBS), (8% of AZT was released). It is filed as ADME.
The nature of data set [7]: Partition coefficient (logP). The format is physicochemical. The following applies: octanol/water.
The species named for data set [8] is Homo sapiens. As to the kind of experiment: Conc. required to inhibit HIV-1 replication on PBMCs by 50%. It is filed as functional, organism-based.
Data set [9] concerns MT4. As to the kind of experiment: Conc. required to inhibit the cytopathicity of HIV-1 by 50% on MT-4 cells. The format is functional, cell-based. The following applies: Homo sapiens. On the technique in general: Damage to the host cells serves as the signal in cytopathic effect assays.
Data set [10] is described as follows: half life time required for 50% hydrolysis of prodrugs to AZT at 37 degrees upon incubation in Phosphate buffer saline(PBS), (% of AZT was released). The format is ADME.
Data set [11] is described as follows: half life time required for 50% hydrolysis of prodrugs to AZT at 37 degrees upon incubation in Phosphate buffer saline(PBS), (8 % of AZT was released). The format is ADME.
A short description of data set [12]: half life time required for 50% hydrolysis of prodrugs to AZT at 37 degrees upon incubation in Phosphate buffer saline(PBS), (6% of AZT was released). It is filed as ADME.

SMILES strings stand for the structures.

The EC50 is the concentration needed to bring the measured effect to its halfway point. As usually defined, the logP is a log measure of how a compound divides between an organic and an aqueous phase. Higher therefore signals higher lipophilicity.

Regarding `Cc1cn(C2CC(N=[N+]=[N-])C(COC(=O)OCCCCCO)O2)c(=O)[nH]c1=O` (centres undefined), the T1/2 in [1] is 16 min.
Turning to `CCCCOC(=O)OCC1OC(n2cc(C)c(=O)[nH]c2=O)CC1N=[N+]=[N-]` (centres undefined), the values for the T1/2 in data set [2] and in data set [1] were over 1440 min and 9 min, respectively.
`Cc1cn(C2CC(N=[N+]=[N-])C(COC(=O)OCCO)O2)c(=O)[nH]c1=O` (centres undefined): in [1], the T1/2 is under 1 min.
On the same count and under the same terms, the value for `Cc1cn(C2CC(N=[N+]=[N-])C(COC(=O)OCCCCCCO)O2)c(=O)[nH]c1=O` (centres undefined) was 7 min; that for `Cc1cn(C2CC(N=[N+]=[N-])C(COC(=O)OCCCCCCCCO)O2)c(=O)[nH]c1=O` (centres undefined) was 2 min.
Take `Cc1cn([C@H]2C[C@H](N=[N+]=[N-])[C@@H](COC(=O)OC/C=C\CO)O2)c(=O)[nH]c1=O`: the figures for the EC50 in the data set with MT4 [3] and in the data set listed under Homo sapiens [8] were 18 nM and 52 nM, respectively. Moreover, the CC50 in the data set filed under Homo sapiens [4] was over 20000 nM; in the data set with MT4 [5] it was 179000 nM. Besides, the T1/2 is listed as over 1440 min in [6] and 45 min in data set [1]. Besides, the logP in [7] was 0.59.
For `Cc1cn([C@H]2C[C@H](N=[N+]=[N-])[C@@H](COC(=O)OC/C=C/CO)O2)c(=O)[nH]c1=O`, the CC50 in the data set filed under Homo sapiens [4] is over 20000 nM; with MT4 [5], 162000 nM. Moreover, the half-maximal effective concentration (EC50) with MT4 [9] came to 8 nM; in the data set filed under Homo sapiens [8], 66 nM. Also, in data set [7], the logP was -0.59. In addition, the T1/2 in [1] is 26 min; in [10], over 1440 min.
On to `Cc1cn([C@H]2C[C@H](N=[N+]=[N-])[C@@H](COC(=O)OC[C@H]3O[C@H]3CO)O2)c(=O)[nH]c1=O`, for which the EC50 in the data set on MT4 [3] came out at 13 nM; in the data set listed under Homo sapiens [8], 103 nM. The CC50 in the data set listed under Homo sapiens [4] is over 20000 nM; in the data set on MT4 [5] it was 159000 nM. The T1/2 was over 1440 min in data set [11] and 80 min in data set [1]. Also, the logP in data set [7] was determined as 0.47.
`Cc1cn(C2CC(N=[N+]=[N-])C(COC(=O)OCCCCO)O2)c(=O)[nH]c1=O` (centres undefined): the half-maximal effective concentration (EC50) in the data set on MT4 [3] was 6 nM; in the data set listed under Homo sapiens [8], 31 nM. Also, the CC50 was over 20000 nM in the data set listed under Homo sapiens [4] and 262000 nM with MT4 [5]. Besides, the T1/2 in data set [12] is recorded as over 1440 min; in data set [1] it was 30 min.
On to `Cc1cn(C2CC(N=[N+]=[N-])C(COC(=O)OCCCO)O2)c(=O)[nH]c1=O` (centres undefined), for which the T1/2 in data set [1] stood at 10 min.
Regarding `Cc1cn([C@H]2C[C@H](N=[N+]=[N-])[C@@H](CO)O2)c(=O)[nH]c1=O` [ZIDOVUDINE], the concentration for a half-maximal effect (EC50) in the data set on MT4 [3] turned out to be 12 nM; in the data set filed under Homo sapiens [8] it was 56 nM. The CC50 in the data set filed under Homo sapiens [4] amounted to 15000 nM; in the data set on MT4 [5] it was 42000 nM. The logP in data set [7] was found to be 0.88.
